One test has as its target IRAK4 (Homo sapiens (Human), UniProt Q9NWZ3). In words: IRAK4 Inhibition Assay. Format: biochemical. To be noted: ATP 500 μM; IRAK4 0.6 nM; read-out: IRAK4 IC50. Put shortly: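 IRAK4 combined with fluorescent substrate and compounds, reacted 60 min at room temperature, stopped with 35 mM EDTA. Substrate and phosphorylated product separated electrophoretically on a Caliper LabChip 3000 mobility-shift reader.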

In test [1] the test system is TLR2 induced IL-6 in peripheral blood mononuclear cells (PBMCs). In words: PBMC TLR2 Induced IL-6 Assay. Format: cell-based, human. To be noted: human PBMCs, lipoteichoic acid stimulated, IL-6 by ELISA; for IC50: Homo sapiens, PBMC, read-out: Cell IC50; for EC50: read-out: Cell EC50. Put shortly: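 Lipoteichoic acid at 10 µg/ml served as TLR2 stimulus for 5 hours, following a 30-minute compound pretreatment at 37° C. Cells were Ficoll-isolated human PBMCs, 250000 cells/well, cultured in RPMI plus 10% heat-inactivated FCS.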

Each structure is given as a SMILES string.

Chain of IRAK4 (Q9NWZ3 whole entry, species assumed): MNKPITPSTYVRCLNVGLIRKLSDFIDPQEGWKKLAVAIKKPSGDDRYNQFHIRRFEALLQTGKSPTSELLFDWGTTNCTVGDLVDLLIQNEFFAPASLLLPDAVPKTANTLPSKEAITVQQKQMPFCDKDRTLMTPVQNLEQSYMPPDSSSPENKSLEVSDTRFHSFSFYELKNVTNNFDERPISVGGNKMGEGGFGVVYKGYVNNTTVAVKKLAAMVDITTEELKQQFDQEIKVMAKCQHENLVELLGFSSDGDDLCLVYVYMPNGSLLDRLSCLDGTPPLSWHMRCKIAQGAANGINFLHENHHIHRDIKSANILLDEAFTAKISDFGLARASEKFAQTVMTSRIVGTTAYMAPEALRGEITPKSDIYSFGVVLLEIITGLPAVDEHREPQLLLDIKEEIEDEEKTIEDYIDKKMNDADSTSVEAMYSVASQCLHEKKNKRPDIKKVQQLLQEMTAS

By IC50 is commonly meant the point on the concentration scale where inhibition reaches its midpoint. On to `CC(C)(O)[C@H]1CC[C@H](Nc2cc(-n3ncc4cc(C#N)cnc43)ncc2C(=O)NC[C@@H](F)C(C)(C)O)C1` [Example 617], for which the figures for the half-maximal inhibitory concentration (IC50) (at IRAK4; in test [1]) were 2.8 nM and 485 nM, respectively.

Usually EC50 stands for the concentration that produces a half-maximal response. For the compound `CC(C)(O)[C@H](F)CNC(=O)c1cnc(-n2ncc3cc(F)cnc32)cc1NC1CCC(F)C1` (stereo partly drawn) [Example 620], at IRAK4, the IC50 came to 3.4 nM. The EC50 in test [1] is 114 nM.

Consider `CC(C)(O)[C@H](F)CNC(=O)c1cnc(-n2ncc3cc(F)cnc32)cc1NC1CCC(F)C1` (stereo partly drawn) [Example 621], for which the IC50 at IRAK4 came out at 4 nM. The EC50 in test [1] is 139 nM.

In the case of `CC(C)(O)[C@H](F)CNC(=O)c1cnc(-n2ncc3cc(C#N)cnc32)cc1N[C@H]1CC[C@H](NC2COC2)CC1` [Example 622], the IC50 on IRAK4 came to 5.2 nM; in test [1], 132 nM.

Turning to `CC(C)(O)[C@H](F)CNC(=O)c1cnc(-n2ncc3cc(C#N)cnc32)cc1N[C@H]1CC[C@H](NC(=O)C2CC2)CC1` [Example 623], the IC50 worked out at 5.2 nM at IRAK4 and 484 nM in test [1].

Turning to `CC(C)(O)[C@H](F)CNC(=O)c1cnc(-n2ncc3cc(C#N)cnc32)cc1NC12CC3CC(CC(O)(C3)C1)C2` [Example 624], the results for the IC50 (at IRAK4; in test [1]) were 2.1 nM and 68 nM, respectively.

In the case of `CC(C)(O)[C@H]1CC[C@H](Nc2cc(-n3ncc4cc(Cl)cnc43)ncc2C(=O)NC[C@@H](F)C(C)(C)O)C1` [Example 628], the IC50 on IRAK4 came to 3.3 nM; in test [1], 148 nM.

As to `CNC(=O)[C@H]1CC[C@H](NC(=O)c2cnc(-n3ncc4cc(C#N)c(N)nc43)cc2N[C@@H]2CCCC[C@H]2F)CC1` [Example 629], the IC50 at IRAK4 was found to be 3.3 nM; in test [1], 135 nM.

Take `CNC(=O)[C@H]1CC[C@H](NC(=O)c2cnc(-n3ncc4cc(C#N)c(N)nc43)cc2N[C@H]2CCCC[C@@H]2F)CC1` [Example 630]: the IC50 was 2.2 nM at IRAK4 and 30 nM in test [1].

With `CC(C)(O)[C@H](F)CNC(=O)c1cnc(-n2ncc3cc(C#N)c(N)nc32)cc1NC1CC1` [Example 631], the IC50 on IRAK4 came to 3.4 nM; in test [1], 66 nM.

Consider `CC(C)(O)[C@H](F)CNC(=O)c1cnc(-n2ncc3cc(C#N)c(N)nc32)cc1NC12CC3CC(CC(O)(C3)C1)C2` [Example 632], for which the values for the IC50 (on IRAK4; in test [1]) were 2.6 nM and 149 nM, respectively.

As to `CC(C)(O)[C@H](F)CNC(=O)c1cnc(-n2ncc3cc(C#N)cnc32)cc1N[C@H]1CC[C@H](NC(=O)C(F)F)CC1` [Example 633], the IC50 turned out to be 3.3 nM on IRAK4 and 257 nM in test [1].

Take `CC(C)(O)[C@H](F)CNC(=O)c1cnc(-n2ncc3cc(C#N)cnc32)cc1N[C@H]1CC[C@H](NC(=O)c2ccccc2F)CC1` [Example 634]: the half-maximal inhibitory concentration (IC50) at IRAK4 is 3.9 nM; in test [1] it was 277 nM.

Take `CC(C)(O)[C@H](F)CNC(=O)c1cnc(-n2ncc3cc(C#N)cnc32)cc1NC12CC(C1)C2` [Example 635]: the IC50 on IRAK4 was found to be 1.8 nM; in test [1], 375 nM.

With `CC(C)(F)[C@H](F)CNC(=O)c1cnc(-n2ncc3cc(C#N)cnc32)cc1NC12CC3CC(CC(O)(C3)C1)C2` [Example 636], the IC50 on IRAK4 turned out to be 3 nM; in test [1] it was 293 nM.

Take `CC(C)(O)[C@H](F)CNC(=O)c1cnc(-n2ncc3cc(C#N)c(N)nc32)cc1NC12CC(C1)C2` [Example 637]: the IC50 at IRAK4 is 1.5 nM; in test [1] it was 165 nM.

With `CC(C)NC(=O)[C@H]1CC[C@H](Nc2cc(-n3ncc4cc(C#N)cnc43)ncc2C(=O)NC[C@@H](F)C(C)(C)O)CC1` [Example 641], the half-maximal inhibitory concentration (IC50) at IRAK4 was found to be 6.4 nM; in test [1] it was 718 nM.

As to `CC(C)(O)[C@H](F)CNC(=O)c1cnc(-n2ncc3cc(C#N)cnc32)cc1NC1CC(F)(F)C1` [Example 644], the IC50 is 4.3 nM on IRAK4 and 89 nM in test [1].

These data come from patent US9169252B2 (BRISTOL-MYERS SQUIBB COMPANY, priority 2014, dated 2015).
